PMC11981944 (Nature, 2025)

Legend:
[1] = system: SARS-CoV-2 rWuhan M(P132S); format: cell-based
[2] = biological target: SARS-CoV-2 M protein (membrane protein), purified recombinant (SARS-CoV-2, UniProt P0DTC5); assay: cryo-EM structure

## CC(C)(C)[C@H](NC(=O)C(F)(F)F)C(=O)N1C[C@H]2[C@@H]([C@H]1C(=O)N[C@H](C#N)C[C@@H]1CCNC1=O)C2(C)C [Nirmatrelvir]
[1]
  susceptibility of M(P132S) virus (in words): remained fully susceptible

## N#C[C@@]1(c2ccc3c(N)ncnn23)O[C@H](CO)[C@@H](O)[C@H]1O [GS-441524]
[1]
  susceptibility of M(P132S) virus (in words): remained fully susceptible

B1: Fab-B (Fab, V domains shown)
VH: EVQLQQSGPELVKPGASMKISCKTSGYSFTGYTMNWVKQSHGKNLEWIGLINPYNGDTSYNQKFKGKATLTVDKSSSTAYMELLSLTSEDSAVYYCEVINTYWGQGTLVTVSA
VL: DIVMTQSPASLAVSLGQRATISCKASQSIDYDGDNYMNWYQQKPGQPPKLLIYTTSNLESGIPARFSGSGSGTDFTLNIHPVEEGDAATYYCQQNNEDPYTFGGGTKLEIK
[2]
  binding result: binds
